Experimental data: ChEMBL document CHEMBL4507319 (2021)

How the values were obtained:
[1] = target: Serine/threonine-protein kinase B-raf (Homo sapiens) (UniProt P15056); test: B-Raf(h) Eurofins kinase panel; settings: Compound concentration 1.0 uM
[2] = target: Casein kinase I isoform delta (Homo sapiens) (UniProt P48730); test: CK1delta(h) Eurofins kinase panel; settings: Compound concentration 1.0 uM
[3] = target: Epidermal growth factor receptor (Homo sapiens) (UniProt P00533); test: EGFR(h) Eurofins kinase panel; settings: Compound concentration 1.0 uM
Chain of Epidermal growth factor receptor (Homo sapiens) (P00533 whole entry): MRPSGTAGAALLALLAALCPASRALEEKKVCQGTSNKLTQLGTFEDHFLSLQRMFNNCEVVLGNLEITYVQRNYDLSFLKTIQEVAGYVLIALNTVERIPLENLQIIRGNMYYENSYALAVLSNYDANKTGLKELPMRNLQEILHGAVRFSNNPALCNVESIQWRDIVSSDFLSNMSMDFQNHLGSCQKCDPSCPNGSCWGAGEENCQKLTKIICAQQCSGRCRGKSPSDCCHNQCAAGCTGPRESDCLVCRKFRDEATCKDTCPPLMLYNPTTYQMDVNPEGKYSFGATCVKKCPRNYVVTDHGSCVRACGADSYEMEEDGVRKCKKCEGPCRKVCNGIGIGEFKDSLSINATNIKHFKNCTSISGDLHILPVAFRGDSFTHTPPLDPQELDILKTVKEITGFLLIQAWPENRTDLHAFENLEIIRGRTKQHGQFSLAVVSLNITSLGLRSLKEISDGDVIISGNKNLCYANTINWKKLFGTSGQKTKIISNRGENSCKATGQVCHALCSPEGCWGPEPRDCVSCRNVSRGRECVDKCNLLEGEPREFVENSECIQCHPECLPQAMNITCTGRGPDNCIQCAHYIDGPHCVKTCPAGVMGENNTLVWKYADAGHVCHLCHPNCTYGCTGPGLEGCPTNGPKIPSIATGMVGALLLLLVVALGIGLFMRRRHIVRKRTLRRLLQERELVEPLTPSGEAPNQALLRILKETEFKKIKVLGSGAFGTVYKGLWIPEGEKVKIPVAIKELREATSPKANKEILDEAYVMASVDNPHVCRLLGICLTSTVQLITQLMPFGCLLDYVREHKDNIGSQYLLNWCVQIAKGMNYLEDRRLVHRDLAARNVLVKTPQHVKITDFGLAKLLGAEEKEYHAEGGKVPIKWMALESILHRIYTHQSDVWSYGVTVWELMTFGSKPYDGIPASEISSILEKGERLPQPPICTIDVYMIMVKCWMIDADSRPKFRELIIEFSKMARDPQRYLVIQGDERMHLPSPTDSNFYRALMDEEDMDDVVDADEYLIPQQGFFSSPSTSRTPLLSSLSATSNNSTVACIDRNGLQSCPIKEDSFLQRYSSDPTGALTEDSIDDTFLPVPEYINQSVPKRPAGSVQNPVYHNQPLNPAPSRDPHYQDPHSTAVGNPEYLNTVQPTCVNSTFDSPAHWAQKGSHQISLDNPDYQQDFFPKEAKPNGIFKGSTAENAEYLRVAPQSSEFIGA

[4] = target: Fibroblast growth factor receptor 3 (Homo sapiens) (UniProt P22607); test: FGFR3(h) Eurofins kinase panel; settings: Compound concentration 1.0 uM
Chain of Fibroblast growth factor receptor 3 (Homo sapiens) (P22607 23-806 limits assumed): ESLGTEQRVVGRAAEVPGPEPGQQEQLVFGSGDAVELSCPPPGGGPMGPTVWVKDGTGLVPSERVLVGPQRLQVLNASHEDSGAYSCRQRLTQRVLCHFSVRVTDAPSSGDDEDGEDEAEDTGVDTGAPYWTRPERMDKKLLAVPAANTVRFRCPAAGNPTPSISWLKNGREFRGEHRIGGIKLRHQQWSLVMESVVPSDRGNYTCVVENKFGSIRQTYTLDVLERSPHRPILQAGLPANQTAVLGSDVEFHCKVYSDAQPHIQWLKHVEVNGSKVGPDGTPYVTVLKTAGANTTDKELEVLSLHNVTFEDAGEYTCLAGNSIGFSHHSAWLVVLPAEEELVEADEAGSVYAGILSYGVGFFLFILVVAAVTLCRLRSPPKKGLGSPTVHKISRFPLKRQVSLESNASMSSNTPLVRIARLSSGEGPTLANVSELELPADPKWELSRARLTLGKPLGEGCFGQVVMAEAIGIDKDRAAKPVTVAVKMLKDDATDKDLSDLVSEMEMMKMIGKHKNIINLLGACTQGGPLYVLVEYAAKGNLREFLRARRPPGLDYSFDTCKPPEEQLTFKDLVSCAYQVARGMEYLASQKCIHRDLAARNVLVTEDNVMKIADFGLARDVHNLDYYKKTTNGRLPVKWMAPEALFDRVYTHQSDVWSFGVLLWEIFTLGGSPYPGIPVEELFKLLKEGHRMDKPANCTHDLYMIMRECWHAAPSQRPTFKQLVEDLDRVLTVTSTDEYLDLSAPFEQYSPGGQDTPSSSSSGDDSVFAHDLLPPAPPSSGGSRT

[5] = target: Tyrosine-protein kinase Lyn (Homo sapiens) (UniProt P07948); test: Lyn(h) Eurofins kinase panel; settings: Compound concentration 1.0 uM
Chain of Tyrosine-protein kinase Lyn (Homo sapiens) (P07948 2-512 limits assumed): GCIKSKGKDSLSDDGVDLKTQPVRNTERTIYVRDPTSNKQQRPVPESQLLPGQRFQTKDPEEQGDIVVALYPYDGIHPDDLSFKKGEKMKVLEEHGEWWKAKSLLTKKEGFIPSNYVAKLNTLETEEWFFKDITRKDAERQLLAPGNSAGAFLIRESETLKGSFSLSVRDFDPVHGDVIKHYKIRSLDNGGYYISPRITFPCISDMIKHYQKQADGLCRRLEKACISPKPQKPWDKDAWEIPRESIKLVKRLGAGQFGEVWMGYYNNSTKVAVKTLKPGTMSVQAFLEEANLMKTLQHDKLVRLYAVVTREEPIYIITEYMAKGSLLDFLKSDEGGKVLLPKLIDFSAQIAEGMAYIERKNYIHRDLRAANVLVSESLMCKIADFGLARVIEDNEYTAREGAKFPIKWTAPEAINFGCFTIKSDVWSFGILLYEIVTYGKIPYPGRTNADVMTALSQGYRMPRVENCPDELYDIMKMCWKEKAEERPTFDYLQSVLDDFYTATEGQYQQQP

[6] = target: T1, Protein kinase C epsilon type (Homo sapiens) (UniProt Q02156); test: PKCepsilon (h) Eurofins kinase panel; settings: Compound concentration 1.0 uM
T1 sequence (whole entry): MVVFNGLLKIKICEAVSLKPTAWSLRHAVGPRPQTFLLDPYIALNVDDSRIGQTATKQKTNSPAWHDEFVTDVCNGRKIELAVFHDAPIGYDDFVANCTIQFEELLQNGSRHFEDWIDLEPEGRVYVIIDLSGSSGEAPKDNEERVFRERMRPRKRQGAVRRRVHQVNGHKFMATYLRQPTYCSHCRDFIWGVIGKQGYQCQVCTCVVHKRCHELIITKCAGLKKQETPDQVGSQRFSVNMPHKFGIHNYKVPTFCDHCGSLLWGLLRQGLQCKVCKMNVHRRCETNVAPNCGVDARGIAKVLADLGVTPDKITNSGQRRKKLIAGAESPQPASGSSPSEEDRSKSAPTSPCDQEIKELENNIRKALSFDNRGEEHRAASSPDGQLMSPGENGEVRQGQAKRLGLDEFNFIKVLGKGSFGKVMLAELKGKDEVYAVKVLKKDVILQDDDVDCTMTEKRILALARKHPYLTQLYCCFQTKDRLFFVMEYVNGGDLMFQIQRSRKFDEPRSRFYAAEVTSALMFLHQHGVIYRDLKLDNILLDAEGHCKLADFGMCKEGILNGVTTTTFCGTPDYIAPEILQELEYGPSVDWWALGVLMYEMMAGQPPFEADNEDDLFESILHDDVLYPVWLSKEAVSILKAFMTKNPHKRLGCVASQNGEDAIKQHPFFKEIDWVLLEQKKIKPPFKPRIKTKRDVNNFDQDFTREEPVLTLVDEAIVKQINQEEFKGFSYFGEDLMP

[7] = target: T2, Serine/threonine-protein kinase D1 (Homo sapiens) (UniProt Q15139); test: PKCmu (h) Eurofins kinase panel; settings: Compound concentration 1.0 uM
T2 sequence (whole entry): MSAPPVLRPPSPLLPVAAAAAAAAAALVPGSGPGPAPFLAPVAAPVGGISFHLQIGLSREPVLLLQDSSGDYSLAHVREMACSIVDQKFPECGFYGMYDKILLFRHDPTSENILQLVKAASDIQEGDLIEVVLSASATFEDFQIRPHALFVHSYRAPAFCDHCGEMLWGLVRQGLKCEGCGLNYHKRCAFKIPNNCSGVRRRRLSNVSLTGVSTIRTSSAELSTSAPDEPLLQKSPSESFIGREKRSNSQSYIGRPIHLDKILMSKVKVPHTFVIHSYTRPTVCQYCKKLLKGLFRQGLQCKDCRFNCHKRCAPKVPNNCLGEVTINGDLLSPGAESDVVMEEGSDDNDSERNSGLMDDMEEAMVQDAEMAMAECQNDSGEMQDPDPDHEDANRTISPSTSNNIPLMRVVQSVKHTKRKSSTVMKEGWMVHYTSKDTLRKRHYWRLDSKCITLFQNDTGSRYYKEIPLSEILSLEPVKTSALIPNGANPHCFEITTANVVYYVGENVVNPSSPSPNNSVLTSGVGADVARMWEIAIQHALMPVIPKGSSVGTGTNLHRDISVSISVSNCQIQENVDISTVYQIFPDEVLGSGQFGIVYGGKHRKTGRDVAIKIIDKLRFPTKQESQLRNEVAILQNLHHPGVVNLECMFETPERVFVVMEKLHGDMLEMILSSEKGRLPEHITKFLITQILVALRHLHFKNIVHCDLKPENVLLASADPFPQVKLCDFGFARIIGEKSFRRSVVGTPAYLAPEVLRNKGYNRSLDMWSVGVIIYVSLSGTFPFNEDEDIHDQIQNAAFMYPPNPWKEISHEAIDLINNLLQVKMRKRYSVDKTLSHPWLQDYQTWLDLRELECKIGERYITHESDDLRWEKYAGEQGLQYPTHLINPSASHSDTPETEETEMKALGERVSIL

[8] = target: T3, cGMP-dependent protein kinase 2 (Homo sapiens) (UniProt Q13237); test: PRKG2(h) Eurofins kinase panel; settings: Compound concentration 1.0 uM
T3 sequence (whole entry): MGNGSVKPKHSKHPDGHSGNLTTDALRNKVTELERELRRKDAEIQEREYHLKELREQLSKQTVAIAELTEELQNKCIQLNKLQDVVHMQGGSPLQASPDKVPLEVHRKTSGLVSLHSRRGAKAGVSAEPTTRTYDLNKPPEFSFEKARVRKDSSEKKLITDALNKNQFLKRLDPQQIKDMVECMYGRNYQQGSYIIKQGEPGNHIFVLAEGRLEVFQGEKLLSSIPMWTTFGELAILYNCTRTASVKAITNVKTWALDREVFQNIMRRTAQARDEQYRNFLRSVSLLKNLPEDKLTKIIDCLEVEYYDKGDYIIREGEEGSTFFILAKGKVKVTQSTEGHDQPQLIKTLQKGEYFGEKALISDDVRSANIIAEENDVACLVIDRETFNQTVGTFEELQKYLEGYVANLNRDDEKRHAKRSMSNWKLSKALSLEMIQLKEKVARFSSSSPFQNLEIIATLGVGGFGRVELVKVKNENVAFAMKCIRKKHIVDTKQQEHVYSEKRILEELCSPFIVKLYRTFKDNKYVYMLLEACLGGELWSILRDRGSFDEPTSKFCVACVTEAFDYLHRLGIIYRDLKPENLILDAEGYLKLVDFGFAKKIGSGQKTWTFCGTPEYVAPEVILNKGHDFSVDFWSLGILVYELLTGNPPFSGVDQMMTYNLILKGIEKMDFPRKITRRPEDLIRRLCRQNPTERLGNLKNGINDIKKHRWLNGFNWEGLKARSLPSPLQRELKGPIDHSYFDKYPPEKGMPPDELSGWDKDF

LP-1 = test: LP-1 cell line Proliferation assay; type: functional, Homo sapiens; settings: time 3 day

Chain of Casein kinase I isoform delta (Homo sapiens) (P48730 whole entry, looked up, canonical isoform): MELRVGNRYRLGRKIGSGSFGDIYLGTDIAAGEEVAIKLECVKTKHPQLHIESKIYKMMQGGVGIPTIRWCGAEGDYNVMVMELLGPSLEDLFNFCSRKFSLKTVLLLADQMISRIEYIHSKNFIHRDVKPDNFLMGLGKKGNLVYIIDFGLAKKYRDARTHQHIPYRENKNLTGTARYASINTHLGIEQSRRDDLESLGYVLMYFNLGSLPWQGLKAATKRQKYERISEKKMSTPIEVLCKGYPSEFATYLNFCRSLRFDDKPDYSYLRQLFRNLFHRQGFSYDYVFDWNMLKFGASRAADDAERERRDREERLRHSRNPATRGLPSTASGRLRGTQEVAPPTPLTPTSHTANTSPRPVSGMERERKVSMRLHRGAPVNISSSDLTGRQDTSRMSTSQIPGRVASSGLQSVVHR
Chain of Serine/threonine-protein kinase B-raf (Homo sapiens) (P15056 whole entry, canonical isoform): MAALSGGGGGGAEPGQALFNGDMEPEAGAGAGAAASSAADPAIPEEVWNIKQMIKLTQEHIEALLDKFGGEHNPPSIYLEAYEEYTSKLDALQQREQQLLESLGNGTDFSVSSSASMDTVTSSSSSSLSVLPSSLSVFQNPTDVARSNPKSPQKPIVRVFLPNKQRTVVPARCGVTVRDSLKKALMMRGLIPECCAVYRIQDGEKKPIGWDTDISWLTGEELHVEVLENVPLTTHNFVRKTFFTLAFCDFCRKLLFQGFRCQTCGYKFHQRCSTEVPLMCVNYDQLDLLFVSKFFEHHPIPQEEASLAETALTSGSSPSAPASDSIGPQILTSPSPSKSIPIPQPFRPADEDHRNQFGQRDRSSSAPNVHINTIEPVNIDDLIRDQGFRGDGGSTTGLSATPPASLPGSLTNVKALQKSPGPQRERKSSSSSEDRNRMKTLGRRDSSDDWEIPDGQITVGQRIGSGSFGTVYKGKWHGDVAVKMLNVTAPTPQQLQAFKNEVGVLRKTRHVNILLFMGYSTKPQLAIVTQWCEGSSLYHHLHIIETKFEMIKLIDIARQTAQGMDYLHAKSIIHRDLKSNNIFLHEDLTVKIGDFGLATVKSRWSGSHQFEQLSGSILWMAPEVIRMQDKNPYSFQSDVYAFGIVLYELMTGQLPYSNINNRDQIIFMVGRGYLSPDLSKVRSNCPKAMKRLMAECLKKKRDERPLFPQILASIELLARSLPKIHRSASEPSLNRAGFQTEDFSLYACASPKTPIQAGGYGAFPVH

CCc1ccccc1C(=O)Nc1n[nH]c2c(C)c(F)c(C3C(C#N)=C(C)N(C)C(C)=C3C#N)cc12 [BAY-3827]
1900 nM: Cell Proliferation IC50 (LP-1)
inactive: % residual kinase activity [1] 99% | % residual kinase activity [2] 94% | % residual kinase activity [3] 107% | % residual kinase activity [4] 99% | % residual kinase activity [5] 110% | % residual kinase activity [6] 62% | % residual kinase activity [7] 96% | % residual kinase activity [8] 79%
